According to ChEMBL document CHEMBL1811850, “Exploration of acridine scaffold as a potentially interesting scaffold for discovering novel multi-target VEGFR-2 and Src kinase inhibitors” (Bioorg Med Chem, 2011):
Activity calls are given as the source filed them. The rule behind the calls is not given here.

Experiments:
[1] = system: K562; assay: cells; conditions: Homo sapiens, K562, 48 h
[2] = system: HepG2; assay: cells; conditions: Homo sapiens, HepG2, 48 h
[3] = system: MCF7; assay: cells; conditions: Homo sapiens, MCF7, 48 h
[4] = system: K562; assay: Ratio of imatinib IC50 to compound IC50 for human K562 cells after 48 hrs by MTT assay; assay type: functional
[5] = target: Proto-oncogene tyrosine-protein kinase Src (Homo sapiens) (UniProt P12931); assay: Inhibition of SRC at 50 uM after 1 hr
[6] = target: Vascular endothelial growth factor receptor 2 (Homo sapiens) (UniProt P35968); assay: Inhibition of VEGFR2 at 50 uM after 1 hr
[7] = system: SK-MEL-28; assay: Growth inhibition of SK-MEL-28 cells; conditions: Homo sapiens
[8] = Growth inhibition of A375M cells; conditions: Homo sapiens
[9] = system: Malme-3M; assay: cells; conditions: Homo sapiens
Description: Growth inhibition of MALME-3M cells

[10] = target: DNA topoisomerase 2-alpha (Homo sapiens) (UniProt P11388); assay: Inhibition of human topoisomerase 2 at 1 to 50 uM for 40 mins using ethidium bromide by decatenation assay
[11] = target: Vascular endothelial growth factor receptor 2 (Homo sapiens) (UniProt P35968); assay: Inhibition of VEGFR2 in human K562 cells assessed as reduction in activated ERK1/2 levels at 10 uM by Western blot analysis; assay type: cell-based
[12] = target: Proto-oncogene tyrosine-protein kinase Src (Homo sapiens) (UniProt P12931); assay: Inhibition of SRC in human K562 cells assessed as reduction in activated ERK1/2 levels at 10 uM by Western blot analysis; assay type: cell-based; conditions: TDE = time-dependent effect

Sequence of Proto-oncogene tyrosine-protein kinase Src (Homo sapiens) (P12931 2-536 limits assumed): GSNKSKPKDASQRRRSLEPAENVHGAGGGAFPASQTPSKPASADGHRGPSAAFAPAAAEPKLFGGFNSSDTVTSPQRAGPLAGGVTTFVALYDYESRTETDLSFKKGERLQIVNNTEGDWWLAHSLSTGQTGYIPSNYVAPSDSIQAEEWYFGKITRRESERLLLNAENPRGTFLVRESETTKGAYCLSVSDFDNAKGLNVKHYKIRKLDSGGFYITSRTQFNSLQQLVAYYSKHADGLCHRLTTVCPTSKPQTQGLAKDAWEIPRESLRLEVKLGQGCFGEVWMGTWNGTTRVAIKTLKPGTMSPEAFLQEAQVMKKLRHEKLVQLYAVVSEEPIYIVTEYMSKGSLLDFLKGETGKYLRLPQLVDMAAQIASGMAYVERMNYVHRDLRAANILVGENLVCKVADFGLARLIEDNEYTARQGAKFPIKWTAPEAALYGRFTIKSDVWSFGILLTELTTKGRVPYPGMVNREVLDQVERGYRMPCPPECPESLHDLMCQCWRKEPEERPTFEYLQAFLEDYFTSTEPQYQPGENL
Sequence of Vascular endothelial growth factor receptor 2 (Homo sapiens) (P35968 whole entry): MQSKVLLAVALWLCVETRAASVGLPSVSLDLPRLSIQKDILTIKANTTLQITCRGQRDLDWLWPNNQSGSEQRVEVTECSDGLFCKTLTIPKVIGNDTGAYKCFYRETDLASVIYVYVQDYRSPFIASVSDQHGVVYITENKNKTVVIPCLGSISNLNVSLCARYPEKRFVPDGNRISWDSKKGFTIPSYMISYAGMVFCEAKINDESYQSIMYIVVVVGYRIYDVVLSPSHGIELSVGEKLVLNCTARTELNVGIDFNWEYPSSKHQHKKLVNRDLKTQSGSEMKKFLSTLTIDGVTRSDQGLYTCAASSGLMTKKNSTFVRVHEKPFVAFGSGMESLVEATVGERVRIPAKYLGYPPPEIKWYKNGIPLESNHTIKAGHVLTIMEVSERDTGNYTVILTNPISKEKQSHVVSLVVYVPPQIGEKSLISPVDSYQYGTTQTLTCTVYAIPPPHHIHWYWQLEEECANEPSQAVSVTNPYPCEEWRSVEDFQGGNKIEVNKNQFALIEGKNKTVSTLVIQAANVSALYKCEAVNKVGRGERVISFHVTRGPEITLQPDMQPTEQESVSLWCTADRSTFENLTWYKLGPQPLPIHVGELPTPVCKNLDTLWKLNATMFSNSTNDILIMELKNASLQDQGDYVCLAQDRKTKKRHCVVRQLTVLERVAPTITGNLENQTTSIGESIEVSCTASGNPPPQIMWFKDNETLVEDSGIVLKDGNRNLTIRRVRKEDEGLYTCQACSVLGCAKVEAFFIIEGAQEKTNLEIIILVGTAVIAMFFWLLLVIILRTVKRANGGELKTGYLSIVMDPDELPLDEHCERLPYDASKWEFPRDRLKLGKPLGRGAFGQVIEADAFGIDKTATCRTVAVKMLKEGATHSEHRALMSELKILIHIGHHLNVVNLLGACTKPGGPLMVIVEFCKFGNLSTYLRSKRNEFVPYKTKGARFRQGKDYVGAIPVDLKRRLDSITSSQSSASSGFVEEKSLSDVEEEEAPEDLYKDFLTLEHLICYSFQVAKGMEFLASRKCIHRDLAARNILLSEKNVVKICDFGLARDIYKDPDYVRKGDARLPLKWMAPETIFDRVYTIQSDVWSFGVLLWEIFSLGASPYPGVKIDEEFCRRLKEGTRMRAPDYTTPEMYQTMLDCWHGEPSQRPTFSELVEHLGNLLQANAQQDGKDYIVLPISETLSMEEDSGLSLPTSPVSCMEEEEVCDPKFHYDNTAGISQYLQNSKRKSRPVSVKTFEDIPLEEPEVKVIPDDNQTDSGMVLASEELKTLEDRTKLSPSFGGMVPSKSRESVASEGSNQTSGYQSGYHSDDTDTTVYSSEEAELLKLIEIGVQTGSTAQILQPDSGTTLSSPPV
Sequence of DNA topoisomerase 2-alpha (Homo sapiens) (P11388 whole entry): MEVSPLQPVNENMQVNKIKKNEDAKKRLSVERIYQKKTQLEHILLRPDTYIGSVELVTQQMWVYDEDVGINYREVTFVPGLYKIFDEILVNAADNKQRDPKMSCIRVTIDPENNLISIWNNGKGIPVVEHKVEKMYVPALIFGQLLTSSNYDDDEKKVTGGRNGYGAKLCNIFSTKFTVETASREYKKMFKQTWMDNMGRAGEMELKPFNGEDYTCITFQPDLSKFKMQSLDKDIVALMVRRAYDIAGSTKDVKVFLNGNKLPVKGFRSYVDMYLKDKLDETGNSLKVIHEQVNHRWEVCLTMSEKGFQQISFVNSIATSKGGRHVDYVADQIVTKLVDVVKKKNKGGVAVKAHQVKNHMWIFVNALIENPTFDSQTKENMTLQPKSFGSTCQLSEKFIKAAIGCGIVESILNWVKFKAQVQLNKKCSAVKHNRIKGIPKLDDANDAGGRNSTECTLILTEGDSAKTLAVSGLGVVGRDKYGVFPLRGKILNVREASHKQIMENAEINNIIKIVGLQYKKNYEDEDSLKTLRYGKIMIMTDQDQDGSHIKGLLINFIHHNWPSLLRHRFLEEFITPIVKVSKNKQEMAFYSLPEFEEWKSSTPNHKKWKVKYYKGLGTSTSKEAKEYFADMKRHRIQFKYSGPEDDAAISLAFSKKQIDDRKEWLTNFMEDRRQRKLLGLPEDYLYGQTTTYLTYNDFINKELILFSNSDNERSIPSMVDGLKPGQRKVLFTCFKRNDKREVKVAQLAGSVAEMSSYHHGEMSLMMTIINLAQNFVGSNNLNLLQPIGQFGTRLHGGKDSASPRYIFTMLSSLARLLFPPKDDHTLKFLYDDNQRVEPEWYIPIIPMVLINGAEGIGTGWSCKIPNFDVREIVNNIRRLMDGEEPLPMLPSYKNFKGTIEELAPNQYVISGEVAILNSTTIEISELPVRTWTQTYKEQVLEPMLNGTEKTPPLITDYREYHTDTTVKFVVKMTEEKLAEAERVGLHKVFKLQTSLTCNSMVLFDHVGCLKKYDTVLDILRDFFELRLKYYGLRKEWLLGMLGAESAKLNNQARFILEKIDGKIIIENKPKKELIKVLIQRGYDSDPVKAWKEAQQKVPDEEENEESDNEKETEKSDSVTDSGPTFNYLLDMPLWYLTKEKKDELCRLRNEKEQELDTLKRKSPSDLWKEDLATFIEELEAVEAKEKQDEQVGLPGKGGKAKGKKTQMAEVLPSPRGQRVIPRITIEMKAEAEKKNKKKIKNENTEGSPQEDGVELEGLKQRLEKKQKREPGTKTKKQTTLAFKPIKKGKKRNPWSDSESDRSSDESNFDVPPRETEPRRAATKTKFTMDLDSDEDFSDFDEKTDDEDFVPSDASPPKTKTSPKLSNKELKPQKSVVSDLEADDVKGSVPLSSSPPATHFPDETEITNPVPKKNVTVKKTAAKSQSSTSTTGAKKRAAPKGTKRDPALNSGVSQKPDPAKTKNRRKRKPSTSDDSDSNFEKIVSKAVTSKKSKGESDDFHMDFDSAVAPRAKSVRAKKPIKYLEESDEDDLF

Structure (SMILES)	IC50 [1] [µM]	IC50 [2] [µM]	IC50 [3] [µM]	other results
COc1ccc2nc3cc(Cl)ccc3c(Nc3ccc(C(F)(F)F)cc3)c2c1	10.8	> 50	> 50	
COc1ccc2nc3cc(Cl)ccc3c(Nc3cccc(N)n3)c2c1	12	32.7	17.6	inhibition [5]: 6.12%; inhibition [6]: 3.77%
CN[C@@H]1C[C@H]2O[C@@](C)([C@@H]1OC)n1c3ccccc3c3c4c(c5c6ccccc6n2c5c31)C(=O)NC4				inhibition [5]: 99.4%
COc1ccc2nc3cc(Cl)ccc3c(Nc3cccnc3N)c2c1	11.7	10.6	23.2	
COc1ccc2nc3cc(Cl)ccc3c(Nc3cc(OC)c(OC)c(OC)c3)c2c1	31	16.8	> 50	
COc1cc2c(c(OC)c1OC)-c1ccc(OC)c(=O)cc1[C@@H](NC(C)=O)CC2 [COLCHICINE]		1.9	1.9	
COc1ccc2nc3cc(Cl)ccc3c(Nc3ccccc3F)c2c1	13.5	46.1	> 50	
COc1ccc2nc3cc(Cl)ccc3c(Nc3cccc(NC(C)=O)c3)c2c1	21.3	36.8	> 50	
Cn1c(Nc2ccc(C(F)(F)F)cc2)nc2cc(Oc3ccnc(-c4ncc(C(F)(F)F)[nH]4)c3)ccc21 [RAF-265]				IC50 [7]: 140 nM; IC50 [8]: 140 nM; IC50 [9]: 140 nM
COc1ccc2nc3cc(Cl)ccc3c(Nc3ccc(OC(F)(F)F)cc3)c2c1	9.7	10.2	18.9	
COc1ccc2nc3cc(Cl)ccc3c(Nc3ccc(C(=O)O)c(O)c3)c2c1	18.7	> 50	> 50	inhibition [5]: 2.8%; inhibition [6]: 5.4%; inhibition [10]: inactive
COc1ccc2nc3cc(Cl)ccc3c(Nc3ccccc3Cl)c2c1	23.8	30.2	> 50	

The next lines start with results.

IC50 [1] [µM]	IC50 [2] [µM]	IC50 [3] [µM]	Structure (SMILES)	other results
3.2	7.4	41.6	CCOc1ccc(Nc2c3ccc(Cl)cc3nc3ccc(OC)cc23)cc1	
4.9	11.4	> 50	COc1ccc2nc3cc(Cl)ccc3c(Nc3ccccc3O)c2c1	
2.2	6.3	> 50	COc1ccc(Nc2c3ccc(Cl)cc3nc3ccc(OC)cc23)cc1	Ratio IC50 [4]: 2.5
7.7	11	23.2	COc1ccc2nc3cc(Cl)ccc3c(Nc3ccc(N)cc3)c2c1	
5.4	> 50	> 50	COc1ccc2nc3cc(Cl)ccc3c(Nc3ccccc3OC)c2c1	
5.5	8.8	19.9	COc1ccc2nc3cc(Cl)ccc3c(Nc3ccc(C)cc3)c2c1	
7	6	9.3	COc1ccc2nc3cc(Cl)ccc3c(NCCN)c2c1	
7.3	4.1	> 50	COc1ccc2nc3cc(Cl)ccc3c(Nc3ccncc3)c2c1	
9	27.9	> 50	CCOc1ccccc1Nc1c2ccc(Cl)cc2nc2ccc(OC)cc12	
2.7	14.9	> 50	COc1cccc(Nc2c3ccc(Cl)cc3nc3ccc(OC)cc23)c1	
5	4.2	23.8	COc1ccc2nc3cc(Cl)ccc3c(NCc3ccccc3OC)c2c1	inhibition [5]: 8.02%; inhibition [6]: 44%; inhibition [10]: inactive; inhibition [11]: Active; inhibition [12]: tde
5.5	9.6	13.2	COc1ccc2nc3cc(Cl)ccc3c(Nc3cccc(O)c3)c2c1	
5.4			Cc1ccc(NC(=O)c2ccc(CN3CCN(C)CC3)cc2)cc1Nc1nccc(-c2cccnc2)n1 [IMATINIB]	
